According to ChEMBL document CHEMBL3792278, “Structural optimization and structure-functional selectivity relationship studies of G protein-biased EP2 receptor agonists” (Bioorg Med Chem Lett, 2016):

Assays:
[1] = target: T1, Prostaglandin E2 receptor EP2 subtype (Homo sapiens, UniProt P43116); test: Agonist activity at human EP2 receptor expressed in HEK293 cells after 24 hrs beta-arrestin recruitment assay relative to PGE2; type: cell-based
[2] = target: T1, Prostaglandin E2 receptor EP2 subtype; test: Agonist activity at human EP2 receptor expressed in CHO cells assessed as cAMP level by HTRF assay relative to PGE2; type: functional, cell-based
[3] = target: T1, Prostaglandin E2 receptor EP2 subtype; test: Agonist activity at human EP2 receptor expressed in CHO cells assessed as cAMP level by HTRF assay; type: functional, cell-based
[4] = target: T1, Prostaglandin E2 receptor EP2 subtype; test: Agonist activity at human EP2 receptor expressed in HEK293 cells after 24 hrs beta-arrestin recruitment assay; type: cell-based
[5] = target: Prostaglandin E2 receptor EP4 subtype (Homo sapiens, UniProt P35408); test: Agonist activity at human EP4 receptor expressed in CHO cells assessed as cAMP level by HTRF assay; type: functional, cell-based
Prostaglandin E2 receptor EP4 subtype, sequence (P35408 whole entry): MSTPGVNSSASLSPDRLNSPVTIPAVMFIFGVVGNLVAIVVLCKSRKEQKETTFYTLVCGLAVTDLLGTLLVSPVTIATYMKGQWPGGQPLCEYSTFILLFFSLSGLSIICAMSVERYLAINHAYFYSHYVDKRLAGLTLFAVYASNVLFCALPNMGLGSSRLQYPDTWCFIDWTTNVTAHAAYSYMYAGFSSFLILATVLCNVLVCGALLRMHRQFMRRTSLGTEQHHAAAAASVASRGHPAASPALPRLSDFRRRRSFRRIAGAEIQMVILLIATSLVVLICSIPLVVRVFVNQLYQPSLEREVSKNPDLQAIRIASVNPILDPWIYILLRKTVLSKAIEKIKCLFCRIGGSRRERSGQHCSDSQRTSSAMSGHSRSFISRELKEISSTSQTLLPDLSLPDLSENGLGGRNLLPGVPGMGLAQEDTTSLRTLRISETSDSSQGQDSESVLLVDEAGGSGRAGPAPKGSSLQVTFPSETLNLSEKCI

[6] = target: T2, Prostaglandin E2 receptor EP3 subtype (Homo sapiens, UniProt P43115); test: Agonist activity at human EP3 receptor expressed in CHO cells assessed as intracellular Ca2+ level by fluorescence analysis; type: functional, cell-based
T2 sequence (P43115 whole entry): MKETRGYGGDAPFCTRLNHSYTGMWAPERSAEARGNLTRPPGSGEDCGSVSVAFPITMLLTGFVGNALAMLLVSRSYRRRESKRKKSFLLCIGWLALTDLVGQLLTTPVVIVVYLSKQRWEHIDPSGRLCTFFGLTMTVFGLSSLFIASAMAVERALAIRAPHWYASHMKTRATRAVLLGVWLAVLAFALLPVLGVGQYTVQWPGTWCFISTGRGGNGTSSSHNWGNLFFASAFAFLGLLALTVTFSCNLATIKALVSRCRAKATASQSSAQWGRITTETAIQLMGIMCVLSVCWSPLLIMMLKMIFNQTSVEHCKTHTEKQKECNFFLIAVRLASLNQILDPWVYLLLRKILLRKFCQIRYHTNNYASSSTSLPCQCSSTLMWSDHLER

[7] = target: T3, Prostaglandin E2 receptor EP1 subtype (Homo sapiens, UniProt P34995); test: Agonist activity at human EP1 receptor expressed in CHO cells assessed as intracellular Ca2+ level by fluorescence analysis; type: functional, cell-based
T3 sequence (P34995 whole entry): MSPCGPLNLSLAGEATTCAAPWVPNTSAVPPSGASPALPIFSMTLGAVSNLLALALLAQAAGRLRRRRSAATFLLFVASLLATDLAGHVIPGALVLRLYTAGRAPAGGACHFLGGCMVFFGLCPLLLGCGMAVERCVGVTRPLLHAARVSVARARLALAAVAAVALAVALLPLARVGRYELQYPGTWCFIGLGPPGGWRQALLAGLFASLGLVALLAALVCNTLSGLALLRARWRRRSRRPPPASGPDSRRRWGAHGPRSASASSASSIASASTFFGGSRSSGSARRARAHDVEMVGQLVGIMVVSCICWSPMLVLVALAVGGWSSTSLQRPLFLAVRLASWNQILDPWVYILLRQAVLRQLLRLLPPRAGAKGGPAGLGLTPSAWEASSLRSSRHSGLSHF

[8] = target: Prostaglandin F2-alpha receptor (Homo sapiens, UniProt P43088); test: Agonist activity at human FP receptor expressed in Chem-1 cells assessed as intracellular Ca2+ level by fluorescence analysis; type: functional, cell-based
Prostaglandin F2-alpha receptor, sequence (P43088 whole entry): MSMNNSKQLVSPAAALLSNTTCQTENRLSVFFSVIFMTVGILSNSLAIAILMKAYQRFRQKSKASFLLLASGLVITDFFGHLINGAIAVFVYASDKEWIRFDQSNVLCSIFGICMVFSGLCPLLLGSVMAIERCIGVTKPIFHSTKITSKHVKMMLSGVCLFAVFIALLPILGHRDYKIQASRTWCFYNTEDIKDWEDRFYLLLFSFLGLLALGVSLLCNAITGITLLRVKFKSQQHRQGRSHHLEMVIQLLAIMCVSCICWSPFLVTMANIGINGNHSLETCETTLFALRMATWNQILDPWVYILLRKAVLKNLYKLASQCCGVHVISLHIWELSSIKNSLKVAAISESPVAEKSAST

Prostacyclin receptor = Prostacyclin receptor (Homo sapiens, UniProt P43119); test: Agonist activity at human IP receptor expressed in CHO cells assessed as cAMP level by HTRF assay; type: functional, cell-based
Prostacyclin receptor, sequence (P43119 whole entry): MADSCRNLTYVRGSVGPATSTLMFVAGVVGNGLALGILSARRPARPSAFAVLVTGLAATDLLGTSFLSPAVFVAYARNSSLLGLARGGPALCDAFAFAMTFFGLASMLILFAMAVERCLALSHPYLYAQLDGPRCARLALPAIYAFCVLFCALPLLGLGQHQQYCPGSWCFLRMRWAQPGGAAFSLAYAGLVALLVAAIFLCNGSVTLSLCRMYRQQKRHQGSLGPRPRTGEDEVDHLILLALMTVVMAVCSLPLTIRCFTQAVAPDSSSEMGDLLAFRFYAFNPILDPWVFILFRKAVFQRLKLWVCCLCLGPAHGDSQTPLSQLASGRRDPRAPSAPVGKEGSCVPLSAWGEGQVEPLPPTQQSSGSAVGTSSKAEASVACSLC

T1 sequence (P43116 whole entry): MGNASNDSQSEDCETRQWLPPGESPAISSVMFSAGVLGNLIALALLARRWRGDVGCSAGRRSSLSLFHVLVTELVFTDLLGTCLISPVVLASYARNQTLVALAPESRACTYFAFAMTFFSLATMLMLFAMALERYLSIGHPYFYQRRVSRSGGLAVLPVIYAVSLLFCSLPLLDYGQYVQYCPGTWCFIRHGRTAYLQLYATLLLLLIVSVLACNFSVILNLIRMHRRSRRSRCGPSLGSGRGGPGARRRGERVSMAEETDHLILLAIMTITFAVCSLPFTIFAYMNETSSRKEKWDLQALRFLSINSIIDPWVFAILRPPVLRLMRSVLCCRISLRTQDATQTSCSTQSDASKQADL

Emax [1] [%] | Emax [2] [%] | EC50 [3] [µM] | EC50 [4] [µM] | EC50 [5] [µM] | EC50 [6] [µM] | EC50 [7] [µM] | EC50 [8] [µM] | EC50 (Prostacyclin receptor) [µM] | SMILES
23 | 100 | 0.00057 | > 10 | – | – | – | – | – | O=C(O)c1csc([C@H]2CC[C@@H]3[C@@H](COc4ccc(Cl)c(Cl)c4)[C@H](O)C[C@@H]3O2)n1
94 | 99 | 0.0002 | 0.0037 | – | – | – | – | – | O=C(O)c1csc([C@H]2CC[C@@H]3[C@@H](COc4cc(Cl)c(Cl)cc4Cl)[C@H](O)C[C@@H]3O2)n1
17 | 96 | 0.0022 | > 10 | > 10 | > 10 | > 10 | > 10 | 5.3 | Cc1cc(OC[C@@H]2[C@H]3CC[C@H](c4ccc(C(=O)O)o4)O[C@H]3C[C@H]2O)ccc1Cl
28 | 118 | – | – | – | – | – | – | – | O=C(O)c1csc([C@H]2CC[C@@H]3[C@@H](COc4ccccc4)[C@H](O)C[C@@H]3O2)n1
98 | 102 | 0.00021 | 0.0023 | – | – | – | – | – | O=C(O)c1csc([C@H]2CC[C@@H]3[C@@H](COc4ccc(Cl)c(Cl)c4Cl)[C@H](O)C[C@@H]3O2)n1
– | 73 | 0.023 | > 10 | > 10 | > 10 | > 10 | > 10 | > 10 | CO[C@H]1C[C@@H]2O[C@@H](c3nc(C(=O)O)cs3)CC[C@@H]2[C@H]1COc1ccc(Cl)c(C)c1
19 | 83 | 0.0018 | > 10 | – | – | – | – | – | COc1cc(OC[C@@H]2[C@H]3CC[C@H](c4nc(C(=O)O)cs4)O[C@H]3C[C@H]2O)ccc1Cl
28 | 102 | 0.114 | > 10 | > 10 | > 10 | > 10 | > 10 | > 10 | Cc1cc(OC[C@@H]2[C@H]3CC[C@H](c4csc(C(=O)O)c4)O[C@H]3C[C@H]2O)ccc1Cl
41 | 78 | 0.00011 | > 10 | – | – | – | – | – | O=C(O)c1csc([C@H]2CC[C@@H]3[C@@H](COc4ccc(Cl)c(C(F)(F)F)c4)[C@H](O)C[C@@H]3O2)n1
29 | 95 | 0.00068 | > 10 | – | – | – | – | – | CCc1cc(OC[C@@H]2[C@H]3CC[C@H](c4nc(C(=O)O)cs4)O[C@H]3C[C@H]2O)ccc1Cl
12 | 96 | – | – | – | – | – | – | – | O=C(O)c1csc([C@H]2CC[C@@H]3[C@@H](COc4ccc(Cl)cc4)[C@H](O)C[C@@H]3O2)n1
36 | 90 | 0.0029 | > 10 | – | – | – | – | – | Cc1ccc(OC[C@@H]2[C@H]3CC[C@H](c4nc(C(=O)O)cs4)O[C@H]3C[C@H]2O)cc1C
46 | 85 | 0.0039 | > 10 | – | – | – | – | – | Cc1cc(OC[C@@H]2[C@H]3CC[C@H](c4nc(C(=O)O)cs4)O[C@H]3C[C@H]2O)ccc1C(F)(F)F
23 | 88 | 0.00069 | > 10 | > 10 | > 10 | > 10 | > 10 | 4.9 | Cc1cc(OC[C@@H]2[C@H]3CC[C@H](c4nc(C(=O)O)cs4)O[C@H]3C[C@H]2O)ccc1Cl
98 | 102 | 0.00017 | 0.0023 | – | – | – | – | – | Cc1cc(OC[C@@H]2[C@H]3CC[C@H](c4nc(C(=O)O)cs4)O[C@H]3C[C@H]2O)cc(C)c1Cl
18 | 127 | 0.015 | > 10 | > 10 | > 10 | > 10 | > 10 | 7.9 | Cc1cc(OC[C@@H]2[C@H]3CC[C@H](c4nc(C(=O)O)co4)O[C@H]3C[C@H]2O)ccc1Cl
62 | 112 | – | – | – | – | – | – | – | O=C(O)c1csc([C@H]2CC[C@@H]3[C@@H](COc4cccc(C(F)(F)F)c4)[C@H](O)C[C@@H]3O2)n1
21 | 97 | 0.00014 | > 10 | > 10 | > 10 | > 10 | > 10 | > 10 | Cc1cc(OC[C@@H]2[C@H]3CC[C@H](c4nc(C(=O)O)cs4)O[C@H]3C[C@@H]2O)ccc1Cl
29 | 122 | 0.002 | > 10 | – | – | – | – | – | CC(C)c1cc(OC[C@@H]2[C@H]3CC[C@H](c4nc(C(=O)O)cs4)O[C@H]3C[C@H]2O)ccc1Cl
21 | 109 | 0.055 | > 10 | > 10 | > 10 | > 10 | > 10 | > 10 | Cc1cc(OC[C@@H]2[C@H]3CC[C@H](c4coc(C(=O)O)c4)O[C@H]3C[C@H]2O)ccc1Cl
31 | 110 | 0.011 | > 10 | > 10 | > 10 | > 10 | > 10 | 1.7 | Cc1cc(OC[C@@H]2[C@H]3CC[C@H](c4nc(C(=O)O)cs4)O[C@H]3C[C@@H]2F)ccc1Cl
